# In patent publication US9700531B2, “Composition comprising metformin as active ingredient for preventing or treating inflammatory bowel disease” (CATHOLIC UNIVERSITY INDUSTRY ACADEMIC COOPERATION FOUNDATION, priority 2012, dated 2017):
# “Also recorded” adds a separate entry of the source.
# Columns and labels:
# [1] = system: lymph node of the group with an inflammatory bowel disease; assay: Expression of inflammatory cytokines in lymph node of mouse injected with Metformin; type: in vivo
# From the text: FIG. 7 illustrates the result of measuring the inflammatory cytokine regulations caused by Metformin in the lymph node tissues and cells of the group with an inflammatory bowel disease.
# [2] = system: Th17 cell and regulatory Treg cell in the spleen; assay: Th17 cells and regulatory Treg cells in spleen of mouse injected with Metformin (confocal assay); type: in vivo
# [3] = system: spleen cells of a normal mouse group
# [4] = system: spleen cells of a normal mouse group; assay: ROS measurement by FACs (ROS antibody, FITC) in spleen cells of a normal mouse group; type: cell-based; settings: cells collected at 3 days after treatment
# Description: The oxidative stress was known to be an important factor involved in the inflammatory responses of various autoimmune diseases. […] Enbrel®) composite and at 3 days later, each cell was collected and reacted with an ROS antibody with a FITC wavelength range, and then, was measured using fluorescence activated cell sorting (FACs).
# [5] = system: colorectal tissues of the group with an inflammatory bowel disease; assay: Expression of inflammatory cytokines in colorectal tissues and cells of the large intestine of mouse injected with Metformin; type: in vivo
# From the text: FIGS. 6A-6B illustrate the results of measuring the inflammatory cytokine regulations caused by Metformin in the colorectal tissues and colorectal cells of the group with an inflammatory bowel disease.
# Furthermore, the expressions of the inflammatory cytokine IL-10 and TGF-b were increased by Metformin.
# [6] = system: STAT3, mTOR, AMPK, STAT5 in spleen tissue; assay: Signaling molecules in spleen of mouse administered with Metformin (tissue confocal, spleen cell proteins); type: in vivo
# [7] = system: cell line of human large intestine; assay: Gene expression of inflammatory cytokines in cell line of human large intestine treated with Metformin; type: cell-based
# Description: The gene expressions of the inflammatory cytokines TNF-α, IL-8, and IL-1b were investigated after the cell line of human large intestine was treated with Metformin.
# [8] = system: inflammatory bowel disease-induced animal model; assay: Inflammatory bowel disease animal model (3.5% DSS water for a week): weight, survival, thickness of small intestine, length of large intestine; type: in vivo, C57BL/6(H-2kb) mouse; settings: for thickness of the intestine: Metformin 5 mg oral, Etanercept 100 μg subcutaneous or composite, at 3 days after induction
# From the text: The inventors of the present invention first prepared the animal model with an inflammatory bowel disease in order to identify whether the Metformin of the present invention can treat an inflammatory bowel disease. For an experimental animal, a C57BL/6(H-2kb) mouse was used, and to prepare the animal model with an inflammatory bowel disease, the mouse taken with 3.5% dextran sulfate sodium (DSS) water for a week to prepare an animal model with an inflammatory bowel disease.
# The inventors divided the experimental animals into an inflammatory bowel disease-induced animal model group, and an inflammatory bowel disease-induced animal model group, which was administered with Metformin, and for the group being administered with Metformin, 5 mg of Metformin was orally administered at 3 days after the disease was induced.
# [9] = system: spleen cells of a normal mouse group; assay: ELISA of cytokines in culture media of treated cells of the normal mouse group; type: cell-based; settings: culture media collected at 3 days after treatment
# From the text: The inventors treated Metformin and the Metformin-Etanercept (Product Name: Enbrel®) composite to the cells of the normal mouse group to identify the effects of Etanercept (Product Name: Enbrel®) and Metformin on the expression of cytokine.
# [10] = 5 mg Metformin orally 3 days after induction, versus control group
# [11] = 5 mg Metformin orally, the words describe the control group relative to the Metformin group
molecule,measurement,setting,value
CN(C)C(=N)NC(=N)N [Metformin],gene expression of IL-6 in lymph node,[1],considerable decreases
same,gene expression of IL-17 in lymph node,[1],considerable decreases
same,gene expression of IL-21 in lymph node,[1],considerable decreases
same,gene expression of TNF-α in lymph node,[1],considerable decreases
same,expressions of Th17 cells in spleen,[2],considerably inhibited
same,regulatory T cells that express Foxp3 in spleen,[2],significantly increased
same,toxic effects (MTT assay),[3],no toxic effects
same,ROS inhibition,[4],no ROS inhibitory effect; also recorded: no effects of ROS inhibition
same,expression of IL-6 in colorectal tissues (histological findings),[5],considerable decrease
same,expression of IL-8 in colorectal tissues (histological findings),[5],considerable decrease
same,expression of IL-17 in colorectal tissues (histological findings),[5],considerable decrease
same,expression of TNF-α in colorectal tissues (histological findings),[5],considerable decrease
same,gene expressions of the inflammatory cytokines in the cells of the large intestine,[5],considerably inhibited
same,Foxp3 (regulatory T cell factor),[5]; large intestine,increased
same,expression of IL-10,[5]; large intestine,increased
same,expression of TGF-b,[5]; large intestine,increased
same,activated AMPK,[6]; spleen cell proteins,increased
same,"phosphorylated STAT3, 705, and 727",[6]; spleen cell proteins,significantly inhibited
same,activity of STA3 in spleen cells,[6]; tissue confocal,considerably inhibited
same,activity of mTOR in spleen cells,[6]; tissue confocal,considerably inhibited
same,cells with the activated AMPK,"[6]; tissue confocal, spleen",increased
same,cells with the activated STAT5,"[6]; tissue confocal, spleen",increased
same,gene expression of IL-1b,[7],inhibited in a Metformin concentration dependent manner
same,gene expression of IL-8,[7],inhibited in a Metformin concentration dependent manner
same,gene expression of TNF-α,[7],inhibited in a Metformin concentration dependent manner
same,survival rates (in words),[8]; [10],higher survival rates
same,weights (in words),[8]; [10],increase in weights
same,survival rate,"[8]; 5 mg Metformin orally at 3 days after disease induction, control group had low survival rate",100%
same,length of large intestine (histological findings),[8]; [11],shortened length was observed
same,thickness of small intestine (histological findings),[8]; [11],narrower than the group treated with Metformin
same,thickness of the intestine,[8]; versus control group,thicker
same,expression of IL-17 (ELISA),[9],effective in inhibiting
Etanercept,toxic effects (MTT assay),[3],no toxic effects
same,ROS inhibition,[4],no ROS inhibitory effect; also recorded: no effects of ROS inhibition
same,thickness of the intestine,[8]; versus control group,thicker
same,expression of IL-17 (ELISA),[9],effective in inhibiting
